Measured values reported in patent US20250171434A1, “SEC61 INHIBITORS AND USE THEREOF” (KEZAR LIFE SCIENCES, INC., priority 2022, published 2025).
Read-outs that look alike come from different tables or passages of the source.

Tests used:
[1] = tested on: TNFα-FL/Gaussia Luciferase; assay: Dox Induced TNFα-FL-Gluc Assay; assay type: cell-based
Text: (§1) Flp-In 293 T-REx™ cells were transfected with pcDNA™5/FRT/TO plasmid inserted with cDNA encoding Gaussia Luciferase fused to the 3′ end of cDNA encoding full length TNFα (amino acids 1-233). Transfected cells were selected for resistance to the selectable markers Hygromycin and Blasticidin to create a stable cell line that contained the TNFα-FL/Gaussia Luciferase cDNA insert whose expression was regulated under the T-REx™ system. The day before assay, cells were trypsinized and plated in 384-well tissue culture plates. The next day, compound dilutions in DMSO/media containing doxycycline were added to the wells and incubated at 37° C., 5% CO2.
(§2) For chemical structures that include one or more stereoisomers, but are illustrated without indicating stereochemistry, the assay data refers to a mixture of stereoisomers.

[2] = Liver Microsome Stability Assay, human; assay type: in vitro ADME; settings: human liver microsomes 1.0 mg/mL, 1.0 uM compound, 37° C., 1 mM NADPH
Method in brief: (§3)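 Compound at 1.0 uM (0.4% DMSO) was incubated at 37° C with 1.0 mg/mL liver microsomes in 0.1 M potassium phosphate, with or without 1 mM NADPH. Samples were quenched at 0 and 30 minutes.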

[3] = tested on: IL-2-FL/Gaussia Luciferase; assay: Dox Inducible IL2-FL-Gluc Assay; assay type: cell-based
Method in brief: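 Doxycycline induces an IL-2(1-153)–Gaussia luciferase fusion in a stable Flp-In 293 T-REx line. Compound exposure runs alongside induction at 37° C.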

[4] = tested on: multiple myeloma cell line NCI-H929; assay: H929 Cell Viability Assay; assay type: cell-based, human; settings: Homo sapiens
Method in brief: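 Viability is scored by CellTiter-Glo luminescence following a 48-hour treatment at 37° C. Data for structures shown without stereochemistry refer to stereoisomer mixtures.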

[5] = tested on: PD1-ss+10aa/Gaussia Luciferase; assay: Dox-Induced PD1-ss-Gluc Assay; assay type: cell-based
Method in brief: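 The cell line was made by transfecting Flp-In 293 T-REx cells with a PD1 signal sequence+10aa–Gaussia luciferase fusion under T-REx control and selecting with hygromycin and blasticidin. Cells were seeded, and next day compound plus doxycycline was added at 37 °C, 5% CO2.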

[6] = tested on: HER3-ss+4aa/Gaussia Luciferase; assay: Dox-Inducible Her3-ss-Gluc Assay; assay type: cell-based
Text: as §1, with “HER3 signal sequence plus 4 amino” for “full length TNFα (amino”, “(N-[…]-C) (SEQ ID NO: 2).” for “1-233).”, “HER3-ss+4aa/Gaussia” for “TNFα-FL/Gaussia”
as §2

[7] = Liver Microsome Stability Assay, monkey; assay type: in vitro ADME; settings: monkey liver microsomes 1.0 mg/mL, 1.0 uM compound, 37° C., 1 mM NADPH
Method in brief: as §3

[8] = Liver Microsome Stability Assay, mouse; assay type: in vitro ADME; settings: mouse liver microsomes 1.0 mg/mL, 1.0 uM compound, 37° C., 1 mM NADPH
Method in brief: as §3

[9] = tested on: multiple myeloma cell line U266B1; assay: U266 Cell Viability Assay; assay type: cell-based; settings: Homo sapiens
Method in brief: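 Viability is measured as luciferase signal from CellTiter-Glo following a 48-hour incubation with compound at 37° C. under 5% CO2. Where structures lack drawn stereochemistry, values refer to stereoisomer mixtures.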

[10] = Liver Microsome Stability Assay, rat; assay type: in vitro ADME; settings: rat liver microsomes 1.0 mg/mL, 1.0 uM compound, 37° C., 1 mM NADPH
Method in brief: as §3

[11] = ratio of IC50s TNF/PD1; Table 3
[12] = ratio of IC50s IL2/PD1; Table 3
[13] = read-out: 24 hr Dox Inducible TNFaFLGluc 293FRT/TO: Mean IC50; Flp-In 293 T-REx cells, 24 hours with doxycycline; Table 3
[14] = read-out: 24 hr Dox Inducible IL2FLGluc 293FRT/TO: Mean IC50; Flp-In 293 T-REx cells, 24 hours with doxycycline; Table 3
[15] = NCI-H929, 48 h, read-out: 48 hr H929 Viability Celltiter-Glo: Mean EC50 (nM)
[16] = read-out: 24 hr Dox Inducible PD1ssGluc 293FRT/TO: Mean IC50; Flp-In 293 T-REx cells, 24 hours with doxycycline; Table 3
[17] = read-out: 24 hr Dox Inducible Her3(ss + 4)Gluc 293FRT/TO: Mean IC50; Flp-In 293 T-REx cells, 24 hours with doxycycline; Table 3
[18] = U-266, 48 h, read-out: 48 hr U266 Viability Celltiter-Glo: Mean EC50 (nM)

SMILES	IC50 ([1]; Flp-In 293 T-REx cells, 24 hours with doxycycline; Table 3; read-out: 24 hr Dox Inducible TNFaFLGluc 293FRT/TO: Mean IC50)	24 hr Dox Inducible TNFaFLGluc 293FRT/TO: TNF/PD1 [1, 11]	Liver Microsome Stability (Multiple Species): Human - % Remaining after 30 min w/ NADPH (%) [2]	IC50 ([3]; Flp-In 293 T-REx cells, 24 hours with doxycycline; Table 3; read-out: 24 hr Dox Inducible IL2FLGluc 293FRT/TO: Mean IC50)	24 hr Dox Inducible IL2FLGluc 293FRT/TO: IL2/PD1 [3, 12]	EC50 ([4]; NCI-H929 cells, 48 hours, Celltiter-Glo, read-out: 48 hr H929 Viability Celltiter-Glo: Mean EC50)	IC50 ([5]; Flp-In 293 T-REx cells, 24 hours with doxycycline; Table 3; read-out: 24 hr Dox Inducible PD1ssGluc 293FRT/TO: Mean IC50)	IC50 ([6]; Flp-In 293 T-REx cells, 24 hours with doxycycline; Table 3; read-out: 24 hr Dox Inducible Her3(ss + 4)Gluc 293FRT/TO: Mean IC50)	Liver Microsome Stability (Multiple Species): Monkey - % Remaining after 30 min w/ NADPH (%) [7]	Liver Microsome Stability (Multiple Species): Mouse - % Remaining after 30 min w/ NADPH (%) [8]	EC50 ([9]; U-266, U266B1 cells, 48 hours, Celltiter-Glo, read-out: 48 hr U266 Viability Celltiter-Glo: Mean EC50)	Liver Microsome Stability (Multiple Species): Rat - % Remaining after 30 min w/ NADPH (%) [10]	IC50 [1, 13]	IC50 [3, 14]	EC50 [4, 15]	IC50 [5, 16]	IC50 [6, 17]	EC50 [9, 18]
O=C(Nc1nc(/C=C/c2ncn(C3CC3)c2Cl)cs1)c1cc(Cl)cn1Cc1ccnc(F)c1 [Compound A12]	8.54 µM	807	8%	1.53 µM	150	10200 nM	0.011 µM	1.15 µM	5%	78%	> 25000 nM	17%	–	–	–	–	–	–
O=C(Nc1nc(/C=C/c2ncoc2CO)cs1)c1cccn1Cc1ccnc(F)c1 [Compound B1, (E)-1-((2-fluoropyridin-4-yl)methyl)-N-(4-(2-(5-(hydroxymethyl)oxazol-4-yl)vinyl)thiazol-2-yl)-1H-pyrrole-2-carboxamide]	–	>2	10%	–	>2.8	–	–	–	2%	29%	–	3%	> 25 µM	> 25 µM	> 25000 nM	8.93 µM	> 25 µM	> 25000 nM
CC(C)n1cnc(F)c1/C=C/c1csc(NC(=O)c2cccn2Cc2ccnc(F)c2)n1 [Compound B2, (E)-N-(4-(2-(4-fluoro-1-isopropyl-1H-imidazol-5-yl)vinyl)thiazol-2-yl)-1-((2-fluoropyridin-4-yl)methyl)-1H-pyrrole-2-carboxamide]	–	>5	<1%	–	2	–	–	–	<1%	6%	–	8%	> 25 µM	6.64 µM	> 25000 nM	4.48 µM	6.4 µM	> 25000 nM
